According to patent US8163724B2, “Glucocorticosteroids, processes for their preparation, pharmaceutical compositions containing them and their use in therapy” (AstraZeneca AB, priority 2007, dated 2012):

molecular target: T1, recombinant human GR (Homo sapiens, UniProt P04150); assay: Human Glucocorticoid Receptor (GR) Assay (fluorescence polarization, Panvera/Invitrogen kit); type: binding; conditions: fluorescence polarization; GS Red tracer; 2 hours at room temperature; 100% control 10 μM Dexamethasone; read-out: Inhibition of GR binding, IC50
T1 construct: purchased Panvera/Invitrogen P2812 (kit P2893)
T1 sequence (P04150 1-777): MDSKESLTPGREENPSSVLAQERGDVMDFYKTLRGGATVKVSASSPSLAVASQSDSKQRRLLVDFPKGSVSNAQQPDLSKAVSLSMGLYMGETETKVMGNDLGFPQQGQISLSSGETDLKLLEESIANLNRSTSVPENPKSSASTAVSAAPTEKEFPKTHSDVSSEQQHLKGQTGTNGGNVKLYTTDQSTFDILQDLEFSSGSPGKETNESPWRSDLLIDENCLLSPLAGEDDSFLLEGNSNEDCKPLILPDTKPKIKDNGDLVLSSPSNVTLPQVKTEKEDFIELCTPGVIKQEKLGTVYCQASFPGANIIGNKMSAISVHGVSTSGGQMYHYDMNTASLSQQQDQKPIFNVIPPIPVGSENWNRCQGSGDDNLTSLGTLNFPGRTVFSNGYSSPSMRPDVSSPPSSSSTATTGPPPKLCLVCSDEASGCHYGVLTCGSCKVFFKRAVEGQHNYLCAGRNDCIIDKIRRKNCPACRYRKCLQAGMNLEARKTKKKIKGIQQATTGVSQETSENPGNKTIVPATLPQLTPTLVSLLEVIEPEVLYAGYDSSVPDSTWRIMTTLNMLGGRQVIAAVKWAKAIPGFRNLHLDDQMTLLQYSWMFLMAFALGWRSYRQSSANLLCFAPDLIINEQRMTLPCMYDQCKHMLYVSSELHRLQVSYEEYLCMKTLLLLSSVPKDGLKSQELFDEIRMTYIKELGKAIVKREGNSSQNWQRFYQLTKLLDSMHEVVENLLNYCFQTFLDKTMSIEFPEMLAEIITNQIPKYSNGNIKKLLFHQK
Outline: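 Fluorescence polarization competition with recombinant GR and GS Red fluorescent ligand plus stabilizing peptide and DTT in potassium phosphate/sodium molybdate/EDTA buffer with DMSO. Incubated 2 hours at room temperature in the dark; 0% control DMSO, 100% control 10 μM dexamethasone.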

| SMILES | IC50 [nM] |
| --- | --- |
| C[C@]12Cc3cnn(-c4ccc(F)c(CO)c4)c3C=C1CC[C@@H]1[C@@H]2[C@@H](O)C[C@@]2(C)[C@H]1CC[C@]2(OC(=O)C1CC1)C(=O)SCF [Example 139, (1R,3aS,3bS,10aR,10bS,11S,12aS)-7-[4-Fluoro-3-(hydroxymethyl)phenyl]-1-{[(fluoromethyl)thio]carbonyl}-11-hydroxy-10a,12a-dimethyl-1,2,3,3a,3b, 4,5,7,10,10a,10b,11,12,12a-tetradecahydrocyclopenta[5,6]naphtho[1,2-f]indazol-1-yl cyclopropanecarboxylate] | 3.5 |
| COCC(=O)O[C@]1(C(=O)SCC#N)CC[C@H]2[C@@H]3CCC4=Cc5c(cnn5-c5ccc(F)c(CO)c5)C[C@]4(C)[C@H]3[C@@H](O)C[C@@]21C [Example 140, (1R,3aS,3bS,10R,10bS,11S,12aS)-1-{[(Cyanomethyl)thio]carbonyl}-7-[4-fluoro-3-(hydroxymethyl)phenyl]-11a,12a-dimethyl-1,2,3,3a,3b,4,5,7,10,10a,10b,11,12,12a-tetradecahydrocyclopenta[5,6]naphtho[1,2-f]indazol-1-yl Methoxyacetate] | 2.3 |
| C[C@@H]1C[C@H]2[C@@H]3CCC4=Cc5c(cnn5-c5ccc(F)cc5)C[C@]4(C)[C@H]3[C@@H](O)C[C@]2(C)[C@@]1(OC(=O)c1ccco1)C(=O)SCC#N [Example 141, (1R,2R,3aS,3bS,10aR,10bS,11S,12aS)-1-{[(Cyanomethyl)thio]carbonyl}-7-(4-fluorophenyl)-11-hydroxy-2,10a,12a-trimethyl-1,2,3,3a,3b,4,5,7,10,10a,10b,11,12,12a-tetradecahydrocyclopenta[5,6]naphtho[1,2-f]indazol-1-yl furan-2-carboxylate] | 13 |
| Cc1cc(-n2ncc3c2C=C2CC[C@@H]4[C@H]([C@@H](O)C[C@@]5(C)[C@H]4CC[C@]5(OC(=O)C4CC4)C(=O)OCC#N)[C@@]2(C)C3)ccn1 [Example 142, Cyanomethyl(1R,3aS,3bS,10aR,10bS,11S,12aS)-1-[(cyclopropylcarbonyl)oxy]-11-hydroxy-10a,12a-dimethyl-7-(2-methylpyridin-4-yl)-1,2,3,3a,3b,4,5,7,10,10a,10b,11,12,12a-tetradecahydrocyclopenta[5,6]naphtho[1,2-]indazole-1-carboxylate] | 1.6 |
| C[C@]12Cc3cnn(-c4ccccn4)c3C=C1CC[C@@H]1[C@@H]2[C@@H](O)C[C@@]2(C)[C@H]1CC[C@]2(OC(=O)C1CC1)C(=O)OCC#N [Example 143, Cyanomethyl(1R,3aS,3bS,10aR,10bS,11S,12aS)-1-[(cyclopropylcarbonyl)oxy]-11-hydroxy-10a,12a-dimethyl-7-pyridin-2-yl-1,2,3,3a,3b,4,5,7,10,11a,10b,11,12,12a-tetradecahydrocyclopenta[5,6]naphtho[1,2-f]indazole-1-carboxylate] | 1.5 |
| C[C@]12Cc3cnn(-c4ccc(F)c(CO)c4)c3C=C1CC[C@@H]1[C@@H]2[C@@H](O)C[C@@]2(C)[C@H]1CC[C@]2(OC(=O)C1CC1)C(=O)SCC#N [Example 144, (1R,3aS,3bS,10aR,10bS,11S,12aS)-1-{[(Cyanomethyl)sulfanyl]carbonyl}-7-[4-fluoro-3-(hydroxymethyl)phenyl-]-11-hydroxy-10a,12a-dimethyl-1,2,3,3a,3b, 4,5,7,10,10a,11,12,12a-tetradecahydrocyclopenta[5,6]naphtho[1,2-f]indazol-1-yl Cyclopropanecarboxylate] | 3.8 |
| C[C@]12Cc3cnn(-c4ccc(F)c(CO)c4)c3C=C1CC[C@@H]1[C@@H]2[C@@H](O)C[C@@]2(C)[C@H]1CC[C@]2(OC(=O)C1CC1)C(=O)OCC#N [Example 145, Cyanomethyl(1R,3aS,3bS,10aR,10bS,11S,12aS)-1-[(cyclopropylcarbonyl)oxy]-7-[4-fluoro-3-(hydroxymethyl)phenyl]-11-hydroxy-10a,12a-dimethyl-1,2,3,3a,3b,4,5,7,10,10a,10b,11,12,12a-tetradecahydrocyclopenta[5,6]naphtho[1,2-f]indazole-1-carboxylate] | 3.2 |
| C[C@]12Cc3cnn(-c4ccc(F)cc4)c3C=C1CC[C@@H]1[C@@H]2[C@@H](O)C[C@@]2(C)[C@H]1CC[C@]2(OC(=O)C1(C#N)CC1)C(=O)SCC#N [Example 146, (1R,3aS,3bS,10aR,10bS,11S,12aS)-1-{[(Cyanomethyl)sulfanyl]carbonyl}-7-(4-fluorophenyl)-11-hydroxy-10a,12a-dimethyl-1,2,3,3a,3b,4,5,7,10,10a,10b,11,12,12a-tetradecahydrocyclopenta[5,6]naphtho[1,2-f]indazol-1-yl 1-cyanocyclopropane Carboxylate] | 3.4 |
| C[C@]12Cc3cnn(-c4ccccn4)c3C=C1CC[C@@H]1[C@@H]2[C@@H](O)C[C@@]2(C)[C@H]1CC[C@]2(OC(=O)C1CC1)C(=O)SCF [Example 149, (1R,3aS,3bS,10aR,10bS,11S,12aS)-1-{[(Fluoromethyl)sulfanyl]carbonyl}-11-hydroxy-10a,12a-dimethyl-7-pyridin-2-yl-1,2,3,3a,3b,4,5,7,10,10a,10b,11,12,12a-tetradecahydrocyclopenta[5,6]naphtho[1,2-f]indazol-1-yl cyclopropane Carboxylate] | 5 |
| C[C@]12Cc3cnn(-c4ccc(Cl)cn4)c3C=C1CC[C@@H]1[C@@H]2[C@@H](O)C[C@@]2(C)[C@H]1CC[C@]2(OC(=O)C1CC1)C(=O)SCF [Example 150, (1R,3aS,3bS,10aR,10bS,11S,12aS)-7-(5-Chloropyridin-2-yl)-1-{[(fluoromethyl)sulfanyl]carbonyl}-11-hydroxy-10a,12a-dimethyl-1,2,3,3a,3b,4,5,7,10,10a,10b,11,12,12a-tetradecahydrocyclopenta[5,6]naphtho[1,2-f]indazol-1-yl cyclopropane Carboxylate] | 21 |
| C[C@]12Cc3cnn(-c4ccc(F)nc4)c3C=C1CC[C@@H]1[C@@H]2[C@@H](O)C[C@@]2(C)[C@H]1CC[C@]2(OC(=O)C1CC1)C(=O)SCC#N [Example 152, (1R,3aS,3bS,10aR,10bS,11S,12aS)-1-{[(Cyanomethyl)sulfanyl]carbonyl}-7-(6-fluoropyridin-3-yl)-11-hydroxy-10a,12a-dimethyl-1,2,3,3a,3b,4,5,7,10,10a,10b,11,12,12a-tetradecahydrocyclopenta[5,6]naphtho[1,2-f]indazol-1-yl cyclopropanecarboxylate] | 7 |
| CSC(=O)[C@@]1(OC(=O)C2CC2)CC[C@H]2[C@@H]3CCC4=Cc5c(cnn5-c5ccc(F)nc5)C[C@]4(C)[C@H]3[C@@H](O)C[C@@]21C [Example 153, (1R,3aS,3bS,10aR,10bS,11S,12aS)-7-(6-Fluoropyridin-3-yl)-11-hydroxy-10a,12a-dimethyl-1-[(methylsulfanyl)carbonyl]-1,2,3,3a,3b,4,5,7,10,10a,10b,11,12,12a-tetradecahydrocyclopenta[5,6]naphtho[1,2-f]indazol-1-yl cyclopropanecarboxylate] | 2.4 |
| COCSC(=O)[C@@]1(OC(=O)C2CC2)CC[C@H]2[C@@H]3CCC4=Cc5c(cnn5-c5ccc(F)nc5)C[C@]4(C)[C@H]3[C@@H](O)C[C@@]21C [Example 154, (1R,3aS,3bS,10aR,10bS,11S,12aS)-7-(6-Fluoropyridin-3-yl)-11-hydroxy-1-{[(methoxymethyl)sulfanyl]carbonyl}-10a,12a-dimethyl-1,2,3,3a,3b,4,5,7,10,10a,10b,11,12,12a-tetradecahydrocyclopenta[5,6]naphtho[1,2-f]indazol-1-yl cyclopropanecarboxylate] | 5.9 |
| C[C@]12Cc3cnn(-c4ccc(F)nc4)c3C=C1CC[C@@H]1[C@@H]2[C@@H](O)C[C@@]2(C)[C@H]1CC[C@]2(OC(=O)C1CC1)C(=O)SCCO [Example 155, (1R,3aS,3bS,10aR,10bS,11S,12aS)-7-(6-Fluoropyridin-3-yl)-11-hydroxy-1-{[(2-hydroxyethyl)sulfanyl]carbonyl}-10a,12a-dimethyl-1,2,3,3a,3b,4,5,7,10,10a,10b,11,12,12a-tetradecahydrocyclopenta[5,6]naphtho[1,2-f]indazol-1-yl cyclopropanecarboxylate] | 1.9 |
| COCC(=O)O[C@]1(C(=O)SCC#N)CC[C@H]2[C@@H]3CCC4=Cc5c(cnn5-c5ccc(F)nc5)C[C@]4(C)[C@H]3[C@@H](O)C[C@@]21C [Example 156, (1R,3aS,3bS,10aR,10bS,11S,12aS)-1-{[(Cyanomethyl)sulfanyl]carbonyl}-7-(6-fluoropyridin-3-yl)-11-hydroxy-10a,12a-dimethyl-1,2,3,3a,3b,4,5,7,10,10a,10b,11,12,12a-tetradecahydrocyclopenta[5,6]naphtho[1,2-f]indazol-1-yl methoxyacetate] | 1.3 |
